What was measured:
[1] = system: knee OA patients; conditions: X-ray criteria, 5-year period; cited from earlier work
[2] = system: experimental osteoarthritis (OA) dog model; test: Experimental OA dog model (ACL section), macroscopic grading of the knee; format: in vivo; conditions: for reduction of size of cartilage lesions on tibial plateaus vs placebo: P<0.01; for width of osteophytes: mean±SEM, placebo 4.50±0.66, not significant; for osteophytes present (share of condyles): placebo 93%
Description: (§1) Twenty-one adult crossbred dogs (2-3 years old), weighing 20-25 kg each, were used in this study. Surgical sectioning of the anterior cruciate ligament (ACL) of the right knee through a stab wound was performed on all dogs as previously described (5,6). Prior to surgery, the animals were anesthetized intravenously with pentobarbital sodium (25 mg/kg) and intubated. Following surgery, the dogs were kept at a housing farm where they were free to exercise in a large pen.
(§2) The dogs were randomly separated into 3 treatment groups. Group 1 (n=7 dogs) was made up of dogs that received placebo (encapsulated methylcellulose) treatment (OA dogs); Groups 2 and 3 (n=7 dogs per group) received encapsulated ML3000 twice daily for 8 weeks at total doses of 2.5 and 5 mg/kg, respectively, beginning the day following surgery. The medication was administered 7 days/week throughout the duration of the study. All dogs were killed 8 weeks after surgery.
Immediately after killing, the right knee of each dog was dissected, placed on ice, and the synovial fluid aspirated. Each knee was examined by 2 independent, blinded observers (DVJ, JCF) for gross morphologic changes including the presence of osteophyte formation and cartilage lesions as previously described (5,6). The degree of osteophyte formation was graded by measuring the maximal width (mm) of the spur of each femoral condyle. The cartilage changes on the medial and lateral femoral condyles and tibial plateaus were graded separately under a dissecting microscope (Stereozoom; Bausch & Lomb, Rochester, N.Y.).
The area of the articular surface changes was measured and expressed in mm^2. The depth of erosion was graded on a scale of 0-4, as follows: 0=surface appears normal, 1=minimal fibrillation or a slight yellowish discoloration of the surface, 2=erosion extended into superficial or middle layers, 3=erosion extended into deep,layers, and 4=erosion extended to the subchondral bone.

[3] = system: PGE2; test: PGE2 measurement in synovial fluid of OA dogs (EIA); format: in vivo, dog; conditions: 2.5 and 5 mg/kg/day; placebo 652.8±149.9 pg/ml
Description: as §2
Synovial fluid taken at the time of sacrifice was centrifuged (14000 g, 15 minutes, 4° C.), and supernatants used for PGE2 determination. The level of PGE2 was determined using a specific enzyme immunoassay (EIA) (Cayman Chemical, Ann Arbor, Mich.).

[4] = system: collagenase-1 (MMP-1); test: Immunohistochemistry, chondrocyte cell score for collagenase-1 in cartilage of OA dogs; format: in vivo, dog; conditions: condyles and plateaus, both doses, slightly more pronounced at highest dosage
Description: as §2
Cartilage and synovial membrane specimens were processed for immunohistochemical analysis as previously described (7,14). Briefly, specimens were fixed in 4% neutral buffered formalin for 24 hours, then embedded in paraffin. […]
Cartilage. Quantification of the different antigens in cartilage was done using a published method (7,14). […] For each arthritic specimen, it was ensured prior to evaluation that an intact cartilage surface could be detected and used as a marker for validation of morphometric analysis. The total number of chondrocytes and the number of chondrocytes staining positive for the specific antigen were determined. The final results were expressed as the percentage of chondrocytes staining positive for the antigen (cell score) with the maximum score being 100%. […]

[5] = system: experimental osteoarthritis (OA) dog model; test: Experimental OA dog model, histologic grading of cartilage and synovial membrane; format: in vivo
Description: as §1, §2
Histologic evaluation was performed on sagittal sections of cartilage from the lesioned areas of each femoral condyle and tibial plateau as described (7,8). Specimens were dissected, fixed in TissuFix #2 (Laboratoires Gilles Chaput, Montréal, Québec, Canada), and embedded in paraffin for histologic evaluation. Serial sections (5 μm) were stained with Safranin O. The severity of the OA lesions was graded on scale of 0-14, by 2 independent observers (DJ, JF), using the histologic/histochemical scale of Mankin et al (12). This scale evaluates the severity of OA lesions based on the loss of staining with Safranin O (scale 0-4), cellular changes (scale 0-3), invasion of the tidemark by blood vessels (scale 0-1), and structural changes (scale 0-6, where 0=normal cartilage structure and 6=erosion of the cartilage down to the subchondral bone). This scoring system was based on the most severe histologic changes within each cartilage section.
Representative specimens of synovial membrane from the gutters of the medial and lateral knee compartments were also dissected from underlying tissue. The specimens were fixed in TissuFix #2, embedded in paraffin, sectioned (5 μm), and stained with hematoxylin and eosin. Two synovial membrane specimens from each compartment were examined, serial selections were made throughout the specimens, and each one scored separately. The highest score from each specimen was recorded. The average was calculated and considered as a unit for the whole knee. The severity of synovitis was graded on a scale of 0-10 (13) by 2 independent observers (DVJ, JCF) adding the scores for 3 histologic criteria: synovial lining cell hyperplasia (scale 0-2), villous hyperplasia (scale 0-3), and degree of cellular infiltration by mononuclear and polymorphonuclear cells (scale 0-5).

[6] = system: carrageenan-induced paw edema; conditions: rat; cited from earlier work
[7] = Plasma ML3000 level after immediate release dosage forms; format: in vivo; conditions: immediate release dosage form, for 8 hours
[8] = Clinical observation of dogs during 8 weeks of treatment; format: in vivo; conditions: all dogs of the 3 experimental groups
Description: as §1, §2

[9] = system: LTB4; test: LTB4 production in synovial explant culture of OA dogs (LPS, EIA); format: in vivo, dog; conditions: both treated groups, explants with 1 μg/ml LPS; placebo 2.48±0.69 pg/mg tissue
Description: as §2
Representative specimens of synovial membrane from all dogs were aseptically dissected from underlying tissue. The specimens were rinsed several times in Dulbecco's Modified Eagle's Medium (DMEM; Gibco-BRL Life Technologies, Burlington, Ontario, Canada), and 150 mg of tissue incubated (duplicate) for 48 hours at 37° C. in a humidified atmosphere of 5% CO2/95% air in DMEM medium in the presence of 1 μg/ml lipopolysaccharide (LPS; Sigma-Aldrich Canada, Oakville, Ontario, Canada). The LTB4 was extracted from cultured synovium explants as follows: membranes were homogenized in EIA buffer (1 M phosphate, pH 7.4, containing 1% BSA, 4 M NaCl, 10 mM EDTA and 0.1% sodium azide) and centrifuged (30000 g, 20 minutes, 4° C.). Supernatants were collected and the levels of LTB4 determined using EIA (Cayman Chemical).

[10] = system: rat adjuvant arthritis; conditions: cited from earlier work
[11] = system: interleukin-1β (IL-1β); test: Immunohistochemistry, synovial membrane cell score for IL-1β in OA dogs; format: in vivo, dog; conditions: 2.5 and 5 mg/kg/day
Description: as §2
Cartilage and synovial membrane specimens were processed for immunohistochemical analysis as previously described (7,14). Briefly, specimens were fixed in 4% neutral buffered formalin for 24 hours, then embedded in paraffin. Sections (5 μm) of paraffin-embedded specimens were placed on Superfrost Plus slides (Fisher Scientific, Nepean, Ontario, Canada), deparaffinized in toluene, dehydrated in a graded series of ethanol, and preincubated with chondroitinase ABC (0.25 units/ml) in phosphate buffered saline (PBS; Sigma-Aldrich Canada) for 60 minutes at 37° C. […]
Synovial membrane. For synovial membrane analysis, a cell score of the different specimens was determined for each section using our published method (8). […] The percentage of cells staining positive for the specific antigen was evaluated in each field as described above for cartilage. […]

[12] = system: experimental dog model of OA; conditions: cited from earlier work

COc1ccc2c(c1)c(CC(=O)O)c(C)n2C(=O)c1ccc(Cl)cc1 [indomethacin]
effect on progression of cartilage damage [1]: even accelerated its progression

CC1(C)Cc2c(-c3ccccc3)c(-c3ccc(Cl)cc3)c(CC(=O)O)n2C1 [ML3000, [2,2-dimethyl-6-(4-chlorophenyl)-7-phenyl-2,3-dihydro-1H-pyrrolizine-5yl]-acetic acid]
reduction of size of cartilage lesions on tibial plateaus vs placebo ([2]; 2.5 mg/kg/day, 8 weeks): 45% | reduction of size of cartilage lesions on femoral condyles vs placebo ([2]; 2.5 mg/kg/day, 8 weeks, P<0.05): 39% | width of osteophytes ([2]; 2.5 mg/kg/day, 8 weeks): 3.57±0.56 mm | osteophytes present (share of condyles) ([2]; 2.5 mg/kg/day, 8 weeks): 93% | reduction of size of cartilage lesions on tibial plateaus vs placebo ([2]; 5 mg/kg/day, 8 weeks): 54% | reduction of size of cartilage lesions on femoral condyles vs placebo ([2]; 5 mg/kg/day, 8 weeks, P<0.04): 61% | width of osteophytes ([2]; 5 mg/kg/day, 8 weeks): 3.86±0.66 mm | osteophytes present (share of condyles) ([2]; 5 mg/kg/day, 8 weeks): 86% | macroscopic appearance of synovial membrane vs placebo ([2]; ML3000-treated dogs, 8 weeks): thinner, contained fewer blood vessels, and the discoloration was less intense | grade of cartilage lesions on tibial plateaus ([2]; both doses (2.5 and 5 mg/kg/day), scale 0-4): significantly reduced | grade of cartilage lesions on femoral condyles ([2]; treated dogs (2.5 and 5 mg/kg/day), scale 0-4): did not reach statistical significance | level of PGE2 in synovial fluid [3]: markedly decreased | chondrocyte cell score for collagenase-1 [4]: significant decrease | villous hyperplasia of synovial membrane ([5]; 5 mg/kg/day): significant reduction | histologic severity of cartilage lesions on condyles vs placebo, significance ([5]; 5 mg/kg/day, Mankin scale 0-14): statistical significance was obtained | histologic severity of cartilage lesions on tibial plateaus ([5]; 2.5 and 5 mg/kg/day (P<0.002 and P<0.02), Mankin scale): statistically significant decrease | histologic severity of cartilage lesions on condyles vs placebo ([5]; ML3000-treated dogs, Mankin scale 0-14): less severe | anti-inflammatory action [6]: potent anti-inflammatory action | plasma ML3000 concentration maintained ([7]; dose 2.5 mg/kg): above 100 ng/mL | plasma ML3000 concentration maintained ([7]; dose 5 mg/kg): > 200 ng/mL | body weight during the study period [8]: no change in the body weight | LTB4 levels in cultured synovium [9]: statistically significant reduction | anti-inflammatory action [10]: potent anti-inflammatory action | number of synovial lining cells staining positive for IL-1β [11]: dose-dependent and significant decrease

CC(=O)Oc1ccccc1C(=O)O [ASA, acetylsalicylic acid]
effect on progression of experimental OA [12]: ineffective (10) or even demonstrated to accelerate cartilage damage

CC(C(=O)O)c1ccc(C(=O)c2ccccc2)s1 (centres unmarked) [tiaprofenic acid]
effect on progression of cartilage damage [1]: could not retard the progression of cartilage damage

O=C(O)Cc1ccccc1Nc1c(Cl)cccc1Cl [diclofenac]
effect on progression of experimental OA [12]: ineffective (10) or even demonstrated to accelerate cartilage damage

CC(C(=O)O)c1ccc2c(c1)[nH]c1ccc(Cl)cc12 (centres unmarked) [Carprofen]
effect on progression of experimental OA [12]: exhibit anti-OA effects
